Test results taken from PubChem BioAssay AID1963432 (Molecular Pharmacology Branch, DTP, NCI, 2024).

Tested on: SYO-1 complex spheroid growth, percent test/control
Assay: Anticancer human tumor SYO-1 cell line growth inhibition [Asc];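 note: compound exposure lasted 7 days after spheroids grew 3 days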;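 for viability, T/C: 100% = DMSO vehicle control viability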
Details: for IC50: curve of first compound; for viability, T/C: stronger effect = lower value
Summary of the method: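 Concentration series start at each agent's clinical Cmax, or at 10 microM when none is established, and drop in half-log steps; agents are applied alone or together to complex spheroids built with HUVEC and hMSC.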

[1] = second compound 0.0316 µM, first compound 0.00316 µM
[2] = second compound 0.0316 µM, first compound 0.01 µM
[3] = second compound 0.0316 µM, first compound 0.0316 µM
[4] = second compound 0.0316 µM, first compound 0.1 µM
[5] = second compound 0.1 µM, first compound 0.00316 µM
[6] = second compound 0.1 µM, first compound 0.01 µM
[7] = second compound 0.1 µM, first compound 0.0316 µM
[8] = second compound 0.1 µM, first compound 0.1 µM
[9] = second compound 0.316 µM, first compound 0.00316 µM
[10] = second compound 0.316 µM, first compound 0.01 µM
[11] = second compound 0.316 µM, first compound 0.0316 µM
[12] = second compound 0.316 µM, first compound 0.1 µM
[13] = second compound 1 µM, first compound 0.00316 µM
[14] = second compound 1 µM, first compound 0.01 µM
[15] = second compound 1 µM, first compound 0.0316 µM
[16] = second compound 1 µM, first compound 0.1 µM
[17] = second compound 3.16 µM, first compound 0.00316 µM
[18] = second compound 3.16 µM, first compound 0.01 µM
[19] = second compound 3.16 µM, first compound 0.0316 µM
[20] = second compound 3.16 µM, first compound 0.1 µM
[21] = second compound 10 µM, first compound 0.00316 µM
[22] = second compound 10 µM, first compound 0.01 µM
[23] = second compound 10 µM, first compound 0.0316 µM
[24] = second compound 10 µM, first compound 0.1 µM

## CCN1CCN(Cc2ccc(Nc3ncc(F)c(-c4cc(F)c5nc(C)n(C(C)C)c5c4)n3)nc2)CC1 + Cc1c(S(C)(=O)=O)c(-c2cc(F)cc(N3CCN(c4ccc(NS(=O)(=O)c5ccc(NC(CCN6CCC(C(=O)OCCCP(=O)(O)O)CC6)CSc6ccccc6)c(S(=O)(=O)C(F)(F)F)c5)cc4)CC3)c2)c(-c2ccc(Cl)cc2)n1C(C)C
Second compound 0.0316 µM
  IC50: > 1 µM
Second compound 0.1 µM
  IC50: > 1 µM
Second compound 0.316 µM
  IC50: > 1 µM
Second compound 1 µM
  IC50: > 1 µM
Second compound 3.16 µM
  IC50: > 1 µM
Second compound 10 µM
  IC50: > 1 µM
[1]
  viability, T/C: 102%
[2]
  viability, T/C: 99.2%
[3]
  viability, T/C: 109%
[4]
  viability, T/C: 111%
Second compound 0.0316 µM, first compound 0.316 µM
  viability, T/C: 121%
Second compound 0.0316 µM, first compound 1 µM
  viability, T/C: 106%
[5]
  viability, T/C: 99.8%
[6]
  viability, T/C: 101%
[7]
  viability, T/C: 97.8%
[8]
  viability, T/C: 113%
Second compound 0.1 µM, first compound 0.316 µM
  viability, T/C: 116%
Second compound 0.1 µM, first compound 1 µM
  viability, T/C: 109%
[9]
  viability, T/C: 103%
[10]
  viability, T/C: 99.1%
[11]
  viability, T/C: 108%
[12]
  viability, T/C: 108%
Second compound 0.316 µM, first compound 0.316 µM
  viability, T/C: 114%
Second compound 0.316 µM, first compound 1 µM
  viability, T/C: 99.4%
[13]
  viability, T/C: 99.7%
[14]
  viability, T/C: 105%
[15]
  viability, T/C: 103%
[16]
  viability, T/C: 106%
Second compound 1 µM, first compound 0.316 µM
  viability, T/C: 115%
Second compound 1 µM, first compound 1 µM
  viability, T/C: 95.1%
[17]
  viability, T/C: 92.7%
[18]
  viability, T/C: 93.7%
[19]
  viability, T/C: 110%
[20]
  viability, T/C: 107%
Second compound 3.16 µM, first compound 0.316 µM
  viability, T/C: 110%
Second compound 3.16 µM, first compound 1 µM
  viability, T/C: 92.2%
[21]
  viability, T/C: 87.5%
[22]
  viability, T/C: 82.5%
[23]
  viability, T/C: 80%
[24]
  viability, T/C: 94.2%
Second compound 10 µM, first compound 0.316 µM
  viability, T/C: 101%
Second compound 10 µM, first compound 1 µM
  viability, T/C: 86.6%

## NC(=O)C(=Cn1cnc(-c2cc(C(F)(F)F)cc(C(F)(F)F)c2)n1)c1cncnc1 + Cc1c(S(C)(=O)=O)c(-c2cc(F)cc(N3CCN(c4ccc(NS(=O)(=O)c5ccc(NC(CCN6CCC(C(=O)OCCCP(=O)(O)O)CC6)CSc6ccccc6)c(S(=O)(=O)C(F)(F)F)c5)cc4)CC3)c2)c(-c2ccc(Cl)cc2)n1C(C)C
Second compound 0.0316 µM
  IC50: 0.17 µM
Second compound 0.1 µM
  IC50: 0.165 µM
Second compound 0.316 µM
  IC50: 0.159 µM
Second compound 1 µM
  IC50: 0.155 µM
Second compound 3.16 µM
  IC50: 0.148 µM
Second compound 10 µM
  IC50: 0.11 µM
Second compound 0.0316 µM, first compound 0.000949 µM
  viability, T/C: 98.1%
Second compound 0.0316 µM, first compound 0.003 µM
  viability, T/C: 102%
Second compound 0.0316 µM, first compound 0.00949 µM
  viability, T/C: 86.8%
Second compound 0.0316 µM, first compound 0.03 µM
  viability, T/C: 93.8%
Second compound 0.0316 µM, first compound 0.0949 µM
  viability, T/C: 96.3%
Second compound 0.0316 µM, first compound 0.3 µM
  viability, T/C: 5.53%
Second compound 0.1 µM, first compound 0.000949 µM
  viability, T/C: 97.6%
Second compound 0.1 µM, first compound 0.003 µM
  viability, T/C: 94%
Second compound 0.1 µM, first compound 0.00949 µM
  viability, T/C: 89.9%
Second compound 0.1 µM, first compound 0.03 µM
  viability, T/C: 93.9%
Second compound 0.1 µM, first compound 0.0949 µM
  viability, T/C: 95.7%
Second compound 0.1 µM, first compound 0.3 µM
  viability, T/C: 2.56%
Second compound 0.316 µM, first compound 0.000949 µM
  viability, T/C: 95%
Second compound 0.316 µM, first compound 0.003 µM
  viability, T/C: 94.8%
Second compound 0.316 µM, first compound 0.00949 µM
  viability, T/C: 92.9%
Second compound 0.316 µM, first compound 0.03 µM
  viability, T/C: 92.8%
Second compound 0.316 µM, first compound 0.0949 µM
  viability, T/C: 89.1%
Second compound 0.316 µM, first compound 0.3 µM
  viability, T/C: 1.51%
Second compound 1 µM, first compound 0.000949 µM
  viability, T/C: 101%
Second compound 1 µM, first compound 0.003 µM
  viability, T/C: 91.2%
Second compound 1 µM, first compound 0.00949 µM
  viability, T/C: 86%
Second compound 1 µM, first compound 0.03 µM
  viability, T/C: 90.8%
Second compound 1 µM, first compound 0.0949 µM
  viability, T/C: 86.5%
Second compound 1 µM, first compound 0.3 µM
  viability, T/C: 0.55%
Second compound 3.16 µM, first compound 0.000949 µM
  viability, T/C: 91.2%
Second compound 3.16 µM, first compound 0.003 µM
  viability, T/C: 87.3%
Second compound 3.16 µM, first compound 0.00949 µM
  viability, T/C: 84%
Second compound 3.16 µM, first compound 0.03 µM
  viability, T/C: 86.3%
Second compound 3.16 µM, first compound 0.0949 µM
  viability, T/C: 81.3%
Second compound 3.16 µM, first compound 0.3 µM
  viability, T/C: 0.31%
Second compound 10 µM, first compound 0.000949 µM
  viability, T/C: 89%
Second compound 10 µM, first compound 0.003 µM
  viability, T/C: 76.8%
Second compound 10 µM, first compound 0.00949 µM
  viability, T/C: 75.6%
Second compound 10 µM, first compound 0.03 µM
  viability, T/C: 67.2%
Second compound 10 µM, first compound 0.0949 µM
  viability, T/C: 61.6%
Second compound 10 µM, first compound 0.3 µM
  viability, T/C: 0.38%

## NC1CCC(NC2CC2c2ccccc2)CC1 (stereo unspecified) + Cc1c(S(C)(=O)=O)c(-c2cc(F)cc(N3CCN(c4ccc(NS(=O)(=O)c5ccc(NC(CCN6CCC(C(=O)OCCCP(=O)(O)O)CC6)CSc6ccccc6)c(S(=O)(=O)C(F)(F)F)c5)cc4)CC3)c2)c(-c2ccc(Cl)cc2)n1C(C)C
Second compound 0.0316 µM
  IC50: > 0.1 µM
Second compound 0.1 µM
  IC50: > 0.1 µM
Second compound 0.316 µM
  IC50: > 0.1 µM
Second compound 1 µM
  IC50: > 0.1 µM
Second compound 3.16 µM
  IC50: > 0.1 µM
Second compound 10 µM
  IC50: > 0.1 µM
Second compound 0.0316 µM, first compound 0.000316 µM
  viability, T/C: 100%
Second compound 0.0316 µM, first compound 0.001 µM
  viability, T/C: 92.1%
[1]
  viability, T/C: 90.5%
[2]
  viability, T/C: 84.8%
[3]
  viability, T/C: 86.9%
[4]
  viability, T/C: 89%
Second compound 0.1 µM, first compound 0.000316 µM
  viability, T/C: 96.5%
Second compound 0.1 µM, first compound 0.001 µM
  viability, T/C: 92.7%
[5]
  viability, T/C: 86.3%
[6]
  viability, T/C: 87.1%
[7]
  viability, T/C: 91.8%
[8]
  viability, T/C: 86.5%
Second compound 0.316 µM, first compound 0.000316 µM
  viability, T/C: 105%
Second compound 0.316 µM, first compound 0.001 µM
  viability, T/C: 91.8%
[9]
  viability, T/C: 87.9%
[10]
  viability, T/C: 91.7%
[11]
  viability, T/C: 89.1%
[12]
  viability, T/C: 86.9%
Second compound 1 µM, first compound 0.000316 µM
  viability, T/C: 92.2%
Second compound 1 µM, first compound 0.001 µM
  viability, T/C: 88.5%
[13]
  viability, T/C: 96.9%
[14]
  viability, T/C: 92.3%
[15]
  viability, T/C: 90.6%
[16]
  viability, T/C: 85.8%
Second compound 3.16 µM, first compound 0.000316 µM
  viability, T/C: 91.3%
Second compound 3.16 µM, first compound 0.001 µM
  viability, T/C: 85.3%
[17]
  viability, T/C: 88.7%
[18]
  viability, T/C: 85.8%
[19]
  viability, T/C: 79.8%
[20]
  viability, T/C: 87.2%
Second compound 10 µM, first compound 0.000316 µM
  viability, T/C: 85.7%
Second compound 10 µM, first compound 0.001 µM
  viability, T/C: 85.4%
[21]
  viability, T/C: 80.5%
[22]
  viability, T/C: 82.4%
[23]
  viability, T/C: 83.3%
[24]
  viability, T/C: 79.7%
